# According to patent US8809529B2, “Imidazo[1,2-α]pyrazine derivatives” (Promega Corporation, priority 2010, dated 2014):
# Test system: HEK293 cells
# Details: human, 24 h
structure (smiles),measurement,value
"O=c1c(Cc2ccc(O)cc2)nc2c(Cc3ccccc3)[nH]c(-c3ccccc3)cn1-2 [PBI-3840, 8-benzyl-2-(4-hydroxybenzyl)-6-phenylimidazo[1,2-a]pyrazin-3(7H)-one]",Viability (normalized to vehicle (DMSO) control) (%),60%
